Test: Chemical analysis of the extract for the antibiotics (HPLC-MS / MS)
Assay type: physicochemical
Details: added at 0.003% each; analysed about two weeks after formation of the extract
Experimental: 10 grams of dried Lawsonia inermis leaves (www.ETSY.com) were placed in a beaker and 100 ml of distilled water were added. The mixture was stirred for 2 hours at room temperature to obtain an aqueous Lawsonia inermis extract designated as a 10% w/w or w/v extract. […] The Lawsonia inermis extract was analyzed for antibiotic activity and for the presence of the antibiotics about two weeks after formation of the extract.
A chemical analysis was performed on the extract. […] Polymyxin B analysis was performed on a Thermo Finnigan LCQ MS.

Substance | antibiotic not detected in the extract at a level of [nanograms/ml]
Gentamicin [Gentamycin] | < 15.0
Polymyxin B | < 960
